These results are taken from ChEMBL document CHEMBL4402530, “New dimensions in the field of antimalarial research against malaria resurgence” (Eur J Med Chem, 2019).

In data set [1] the test system is Plasmodium falciparum. The data set is described as follows: Antiparasitic activity against Plasmodium falciparum D6. In kind it is functional, organism-based.
In data set [2] the test system is Plasmodium falciparum. The data set is described as follows: Antiparasitic activity against Plasmodium falciparum K1. In kind it is functional, organism-based.
Data set [3] relates to Plasmodium falciparum. As to the kind of experiment: Antiparasitic activity against Plasmodium falciparum 3D7. In kind it is functional, organism-based.
In data set [4] the test system is Plasmodium falciparum. As to the kind of experiment: Antiparasitic activity against Plasmodium falciparum Dd2. It counts as functional, organism-based.
The subject of data set [5] is Plasmodium falciparum. The data set is described as follows: Antiparasitic activity against Plasmodium falciparum D10. In kind it is functional, organism-based.
Data set [6] relates to Plasmodium falciparum. The data set is described as follows: Antiparasitic activity against Plasmodium falciparum W2. In kind it is functional, organism-based.
Data set [7] has as its system Plasmodium falciparum. As to the kind of experiment: Antiparasitic activity against Plasmodium falciparum infected in human PBMC. In kind it is functional, organism-based.
For data set [8], the system named is Plasmodium falciparum. The data set is described as follows: Antiparasitic activity against Plasmodium falciparum infected in mouse. In kind it is functional.
The subject of data set [9] is Plasmodium falciparum. The data set is described as follows: Antiparasitic activity against Plasmodium falciparum. It counts as functional, organism-based.
The subject of data set [10] is Plasmodium falciparum. The data set is described as follows: Antiparasitic activity against chloroquine-resistant Plasmodium falciparum Dd2. In kind it is functional, organism-based.
Data set [11] has as its system Plasmodium berghei. The data set is described as follows: Antiparasitic activity against Plasmodium berghei ANKA infected in mouse assessed as mouse survival. It counts as functional.
Data set [12] deals with Plasmodium falciparum. The data set is described as follows: Antiparasitic activity against Plasmodium falciparum infected in SCID mouse. In kind it is functional.
For data set [13], the system named is Plasmodium falciparum. As to the kind of experiment: Antiparasitic activity against Plasmodium falciparum TM91C235. In kind it is functional, organism-based.
The subject of data set [14] is Plasmodium falciparum. As to the kind of experiment: Antiparasitic activity against Plasmodium falciparum […]. In kind it is functional, organism-based.
The test system of data set [15] is Plasmodium falciparum. As to the kind of experiment: Antiparasitic activity against Plasmodium falciparum infected in human HepG2 cells. In kind it is functional, organism-based.
For data set [16], the system named is Plasmodium falciparum. As to the kind of experiment: Antiparasitic activity against Plasmodium falciparum Tm90. It counts as functional, organism-based.
Data set [17] relates to Plasmodium falciparum. The data set is described as follows: Antiparasitic activity against Plasmodium falciparum C2B. It counts as functional, organism-based.
For data set [18], the system named is Plasmodium berghei. As to the kind of experiment: Antiparasitic activity against Plasmodium berghei ANKA infected in CD1 mouse assessed as reduction in parasitemia. It counts as functional.
Data set [19] in a line: Selectivity index, ratio of IC50 for African green Monkey BGM cells to IC50 for chloroquine-resistant Plasmodium falciparum W2. In kind it is toxicity. The note with it: read-out: Selectivity Index.

Each structure is given as a SMILES string. A value given as a limit tells only on which side of the number the result lay.

`O[C@@H](c1cc(C(F)(F)F)nc2c(C(F)(F)F)cccc12)[C@H]1CCCCN1` [(S,R)-MEFLOQUINE]: the midpoint of inhibition with Plasmodium falciparum [1], the IC50, lay at 15.2 nM.
For `CC(C)(C)c1ccc(/C=N/NC(=O)C(=O)Nc2ccc(Nc3ccnc4cc(Cl)ccc34)cc2)cc1`, the IC50 in the data set with Plasmodium falciparum [2] was found to be 52 nM; in the data set with Plasmodium falciparum [3] (Plasmodium falciparum, 3D7), 19.7 nM.
For `CC(CCNc1ccnc2cc(Cl)ccc12)NCCO[C@H]1O[C@@H]2O[C@@]3(C)CC[C@H]4[C@H](C)CC[C@@H]([C@H]1C)[C@@]24OO3` (stereo partly drawn), the values for the IC50 in the data set with Plasmodium falciparum [4] and in the data set with Plasmodium falciparum [5] were 12.2 nM and 17.1 nM, respectively.
As to `CC(C)c1cc2c(cc1O)[C@@]1(C)CCCC(C)(C)[C@@H]1CC2` [FERRUGINOL], the half-maximal inhibitory concentration (IC50) was in the range of 0.9 to 4.2 µg/mL in the data set with Plasmodium falciparum [6] (Plasmodium falciparum, W2); 0.9 to 4.2 µg/mL in the data set on Plasmodium falciparum [1]; 0.9 to 4.2 µg/mL in the data set with Plasmodium falciparum [2]; 0.9 to 4.2 µg/mL in the data set with Plasmodium falciparum [5].
As to `CC(=O)O[C@H]1C[C@H]2[C@@H]([C@H](OC(C)=O)C[C@@H]3C[C@H](NC(=O)OC(C)(C)C)CC[C@@]32C)[C@@H]2CC[C@H]([C@H](C)CCCNCCNc3ccnc4cc(Cl)ccc34)[C@@]12C`, the IC50 in the data set with Plasmodium falciparum [1] lay in the range of 1.35 to 14.1 nM.
`CC(=O)O[C@H]1C[C@H]2[C@@H]([C@H](OC(C)=O)C[C@@H]3C[C@H](NC(=O)OC(C)(C)C)CC[C@@]32C)[C@@H]2CC[C@H]([C@H](C)CCCN(C)CCNc3ccnc4cc(Cl)ccc34)[C@@]12C` yielded a concentration for half-maximal inhibition (IC50) with Plasmodium falciparum [6] (Plasmodium falciparum, W2) of 2.63 to 13.8 nM.
For the compound `CC(=O)O[C@H]1C[C@H]2[C@@H]([C@H](OC(C)=O)C[C@@H]3C[C@H](O)CC[C@@]32C)[C@@H]2CC[C@H]([C@H](C)CCCNCCNc3ccnc4cc(Cl)ccc34)[C@@]12C`, the IC50 lay in the range of 2.63 to 13.8 nM with Plasmodium falciparum [6] (Plasmodium falciparum, W2) and 1.35 to 14.1 nM in the data set with Plasmodium falciparum [1].
As for `COc1cc2[nH]c(C)c(-c3ccc(Oc4ccc(OC(F)(F)F)cc4)cc3F)c(=O)c2cc1Cl`, the EC50 with Plasmodium falciparum [1] is 3.18 to 32.3 nM; in the data set on Plasmodium falciparum [3] (Plasmodium falciparum, 3D7) it was 3.18 to 32.3 nM; in the data set with Plasmodium falciparum [7], 3.18 to 32.3 nM; in the data set with Plasmodium falciparum [9], 1.06 nM. In the data set on Plasmodium falciparum [8], this compound returned an ED50 of 0.3 mg/kg.
Take `NS(=O)(=O)c1cccc(-n2cc(CNc3ccnc4cc(Cl)ccc34)nn2)c1`: the IC50 worked out at 600 nM in the data set with Plasmodium falciparum [10] and 600 nM with Plasmodium falciparum [3] (Plasmodium falciparum, 3D7).
`OC(CN1CCC2(CC1)CC(O)c1ccc3ccccc3c1O2)c1ccc(F)c(F)c1` (stereo not drawn) came in with an EC50 in the data set on Plasmodium falciparum [10] of 350 nM. Besides, the Survival in the data set on Plasmodium berghei [11] was over 1.7 days.
In the case of `NS(=O)(=O)c1cccc(-n2cc(CCNc3ccnc4cc(Cl)ccc34)nn2)c1`, the IC50 amounted to 600 nM with Plasmodium falciparum [10] and 600 nM in the data set on Plasmodium falciparum [3] (Plasmodium falciparum, 3D7).
Consider `CC(=O)O[C@H]1C[C@H]2[C@@H]([C@H](OC(C)=O)C[C@@H]3CC(=O)CC[C@@]32C)[C@@H]2CC[C@H]([C@H](C)CCCNCCCNc3ccnc4cc(Cl)ccc34)[C@@]12C`, for which the IC50 fell in the range of 2.63 to 13.8 nM in the data set on Plasmodium falciparum [6] (Plasmodium falciparum, W2) and 1.35 to 14.1 nM in the data set on Plasmodium falciparum [1].
Consider `COc1cc2[nH]c(C)c(-c3ccc(Oc4ccc(OC(F)(F)F)cc4)cc3)c(=O)c2cc1Cl`, for which the EC50 is 1.3 to 13.6 nM in the data set with Plasmodium falciparum [1]; 1.3 to 13.6 nM with Plasmodium falciparum [3] (Plasmodium falciparum, 3D7); 1.3 to 13.6 nM in the data set with Plasmodium falciparum [7]; 0.58 nM in the data set on Plasmodium falciparum [9]. The ED50 was 0.016 mg/kg in the data set with Plasmodium falciparum [8] and 6 mg/kg with Plasmodium falciparum [12].
As to `CC(=O)O[C@@H]1CC[C@@]2(C)[C@@H](C1)C[C@@H](OC(C)=O)[C@@H]1[C@@H]2C[C@H](OC(C)=O)[C@]2(C)[C@@H]([C@H](C)CCCNCCCNc3ccnc4cc(Cl)ccc34)CC[C@@H]12`, in the data set with Plasmodium falciparum [6] (Plasmodium falciparum, W2), the IC50 lay within 2.63 to 13.8 nM.
As to `NS(=O)(=O)c1cccc(-n2cc(CCCNc3ccnc4cc(Cl)ccc34)nn2)c1`, the half-maximal inhibitory concentration (IC50) in the data set on Plasmodium falciparum [10] was found to be 600 nM; in the data set with Plasmodium falciparum [3] (Plasmodium falciparum, 3D7) it was 600 nM.
`NS(=O)(=O)c1ccc(-n2cc(CCNc3ccnc4cc(Cl)ccc34)nn2)cc1`: the IC50 in the data set with Plasmodium falciparum [10] was 600 nM; with Plasmodium falciparum [3] (Plasmodium falciparum, 3D7), 600 nM.
In the case of `CC(C)=CC(=O)O[C@@H]1C[C@@]2(C)[C@@H](C=C1C)O[C@@H]1[C@H](O)[C@@H](O)[C@@]2(C)[C@]12CO2`, the half-maximal inhibitory concentration (IC50) with Plasmodium falciparum [6] stood at 370 nM; in the data set on Plasmodium falciparum [3], 29 nM.
Regarding `O=C(N/N=C/c1ccc(Br)cc1)C(=O)Nc1ccc(Nc2ccnc3cc(Cl)ccc23)cc1`, the half-maximal inhibitory concentration (IC50) in the data set on Plasmodium falciparum [2] was found to be 52 nM; in the data set with Plasmodium falciparum [3] (Plasmodium falciparum, 3D7), 19.7 nM.
Regarding `CC(=O)O[C@@H]1CC[C@@]2(C)[C@@H](C1)C[C@@H](OC(C)=O)[C@@H]1[C@@H]2C[C@H](OC(C)=O)[C@]2(C)[C@@H]([C@H](C)CCCN(C)CCCNc3ccnc4cc(Cl)ccc34)CC[C@@H]12`, the half-inhibitory concentration (IC50) in the data set on Plasmodium falciparum [6] (Plasmodium falciparum, W2) lay in the range of 2.63 to 13.8 nM.
Regarding `CC(=O)O[C@H]1C[C@H]2[C@@H]([C@H](OC(C)=O)C[C@@H]3C[C@H](N)CC[C@@]32C)[C@@H]2CC[C@H]([C@H](C)CCCN(C)CCNc3ccnc4cc(Cl)ccc34)[C@@]12C`, the IC50 is 3.74 nM with Plasmodium falciparum [6] (Plasmodium falciparum, W2); 4.46 nM with Plasmodium falciparum [1]; 9.2 nM in the data set with Plasmodium falciparum [13]; 1140 nM in the data set on Plasmodium falciparum [14]; over 1000 nM in the data set on Plasmodium falciparum [15]; over 1000 nM with Plasmodium falciparum [7].
Take `Cc1[nH]c2cc(F)cc(F)c2c(=O)c1CCCCCCCl`: the IC50 in the data set with Plasmodium falciparum [1] came out at 0.05 nM; in the data set with Plasmodium falciparum [4], 0.4 nM; in the data set with Plasmodium falciparum [16], 81 nM; in the data set on Plasmodium falciparum [17], 146 nM.
Take `CC(C)(C)NCc1cc(Nc2ccnc3cc(Cl)ccc23)ccc1F`: the ED50 with Plasmodium berghei [18] came to 5.3 mg/kg.
In turn, `COc1cc(NC(C)CCCNCc2ccc(CO[C@H]3O[C@@H]4O[C@@]5(C)CC[C@H]6[C@H](C)CC[C@@H]([C@H]3C)[C@@]46OO5)cc2)c2ncccc2c1` (stereo partly drawn) came in with an IC50 in the data set on Plasmodium falciparum [6] (Plasmodium falciparum, W2) of 112 nM.
For the compound `CCCCCCCc1c(C)nc2cc(F)cc(F)c2c1OC(=O)OCCOCCOCCOCCOC`, the concentration for half-maximal inhibition (IC50) in the data set on Plasmodium falciparum [1] came to 0.05 nM; with Plasmodium falciparum [4], 0.4 nM; with Plasmodium falciparum [16] it was 81 nM; in the data set on Plasmodium falciparum [17], 146 nM.
Consider `CC(=O)O[C@H]1C[C@H]2[C@@H]([C@H](OC(C)=O)C[C@@H]3C[C@H](NS(C)(=O)=O)CC[C@@]32C)[C@@H]2CC[C@H]([C@H](C)CCCN(C)CCNc3ccnc4cc(Cl)ccc34)[C@@]12C`, for which the IC50 was in the range of 2.63 to 13.8 nM with Plasmodium falciparum [6] (Plasmodium falciparum, W2) and 1.35 to 14.1 nM with Plasmodium falciparum [1].
Turning to `O=Cc1cn(-c2ccnc3cc(Cl)ccc23)nn1`, the selectivity ratio in [19] is 351.
With `NS(=O)(=O)c1ccc(-n2cc(CNc3ccnc4cc(Cl)ccc34)nn2)cc1`, the concentration for half-maximal inhibition (IC50) with Plasmodium falciparum [10] worked out at 600 nM; in the data set with Plasmodium falciparum [3] (Plasmodium falciparum, 3D7) it was 600 nM.
Consider `NS(=O)(=O)c1ccc(-n2cc(CCCNc3ccnc4cc(Cl)ccc34)nn2)cc1`, for which the IC50 with Plasmodium falciparum [10] stood at 600 nM; in the data set on Plasmodium falciparum [3] (Plasmodium falciparum, 3D7) it was 600 nM.
For `C[C@H]1Cc2c([nH]c3cc(Cl)c(F)cc23)[C@@]2(N1)C(=O)Nc1ccc(Cl)cc12` [CIPARGAMIN], in the data set on Plasmodium falciparum [8], the ED50 was found to be 1 mg/kg, the ED90 is 3 mg/kg and the ED99 came out at 5 mg/kg.
Take `CC(=O)O[C@H]1C[C@H]2[C@@H]([C@H](OC(C)=O)C[C@@H]3C[C@H](N(C)C)CC[C@@]32C)[C@@H]2CC[C@H]([C@H](C)CCCN(C)CCNc3ccnc4cc(Cl)ccc34)[C@@]12C`: the half-inhibitory concentration (IC50) with Plasmodium falciparum [1] worked out at 2.63 nM; with Plasmodium falciparum [13], 3.32 nM; in the data set with Plasmodium falciparum [14], 2270 nM.
As to `CC(=O)O[C@H]1C[C@H]2[C@@H]([C@H](OC(C)=O)C[C@@H]3CC(=O)CC[C@@]32C)[C@@H]2CC[C@H]([C@H](C)CCCNCCNc3ccnc4cc(Cl)ccc34)[C@@]12C`, the IC50 lay within 2.63 to 13.8 nM with Plasmodium falciparum [6] (Plasmodium falciparum, W2) and 1.35 to 14.1 nM in the data set with Plasmodium falciparum [1].

The IC50 is the point on the concentration scale where inhibition reaches its midpoint. As usually defined, the EC50 is the concentration that produces a half-maximal response. As a reminder, the ED50 is the dose that gives a 50% effect, or the effect in half of the subjects.
